# Test results published in patent US20250082648A1, “COMPOSITIONS AND METHODS FOR ENHANCING KRAS INHIBITOR OR SHP2 INHIBITOR EFFICACY” (New York University, priority 2023, published 2025).
# System: H2122 cells
# Test: CRISPR/Cas9 synthetic lethal screen with TNO155 alone
# Format: cell-based, human
# Conditions: for neg|lfc: H2122 cells; for neg|score / pos|lfc: H2122
smiles,measurement,setting,value
C[C@@H]1OCC2(CCN(c3cnc(Sc4ccnc(N)c4Cl)c(N)n3)CC2)[C@@H]1N [TNO155],neg|lfc,AATF knockout,−0.9199
same,neg|lfc,ABT1 knockout,−1.0094
same,neg|lfc,ADAT3 knockout,−1.2793
same,neg|score,ADSL knockout,0.0007395
same,neg|lfc,ADSS knockout,−1.8117
same,neg|score,ANAPC2 knockout,0.0008681
same,neg|lfc,ARIH1 knockout,−1.1405
same,neg|score,ASF1A knockout,0.0009774
same,neg|score,ASH2L knockout,0.000721
same,neg|lfc,ATP5B knockout,−1.2287
same,neg|lfc,ATP6V0B knockout,−1.1768
same,neg|score,ATP6V1D knockout,0.0008813
same,neg|score,ATP6V1E1 knockout,0.0009389
same,neg|lfc,ATRX knockout,−1.7393
same,neg|lfc,AURKA knockout,−1.3711
same,neg|lfc,BCAS2 knockout,−0.7436
same,neg|score,BCCIP knockout,0.0009424
same,neg|score,C7orf26 knockout,0.0008313
same,neg|score,C12orf45 knockout,0.0008272
same,neg|score,C16orf59 knockout,0.0007587
same,neg|score,C16orf80 knockout,0.000879
same,neg|score,C17orf70 knockout,0.0008636
same,neg|lfc,CCDC115 knockout,−1.2834
same,neg|score,CCDC174 knockout,0.0007499
same,neg|lfc,CEBPZ knockout,−1.2677
same,neg|score,CENPL knockout,0.000924
same,neg|lfc,CHMP6 knockout,−1.2891
same,neg|score,CLP1 knockout,0.000693
same,neg|lfc,CNOT7 knockout,−0.9274
same,neg|score,COPS4 knockout,0.0009634
same,neg|lfc,COPS5 knockout,−1.8379
same,neg|lfc,COPS8 knockout,−0.9744
same,neg|score,COX10 knockout,0.0009358
same,neg|lfc,COX11 knockout,−0.6679
same,neg|lfc,CSNK2B knockout,−1.5191
same,neg|score,CTNNBL1 knockout,0.0007324
same,neg|score,DCTN1 knockout,0.0008908
same,neg|lfc,DCTN5 knockout,−1.6239
same,neg|lfc,DCTN6 knockout,−1.5775
same,neg|lfc,DDOST knockout,−0.981
same,neg|lfc,DDX52 knockout,−1.1513
same,neg|score,DDX54 knockout,0.0009466
same,neg|score,DGCR8 knockout,0.0008832
same,neg|lfc,DPH5 knockout,−1.0575
same,neg|lfc,DPY30 knockout,−0.7867
same,neg|score,DR1 knockout,0.0008727
same,neg|lfc,DUT knockout,−0.9153
same,neg|lfc,DYNC1I2 knockout,−2.041
same,neg|score,EIF2B1 knockout,0.0008906
same,neg|lfc,EIF2B5 knockout,−1.2117
same,neg|score,EXOC5 knockout,0.0008724
same,neg|lfc,EXOSC8 knockout,−1.0794
same,neg|lfc,FASTKD5 knockout,−0.9103
same,neg|score,FBL knockout,0.0009079
same,neg|score,FBXL5 knockout,0.0009454
same,neg|score,FDX1L knockout,0.0007487
same,neg|lfc,FOXRED1 knockout,−0.9267
same,neg|lfc,FSCN1 knockout,−0.9432
same,neg|lfc,FTSJ3 knockout,−1.5605
same,neg|score,FXN knockout,0.000775
same,neg|lfc,FZD9 knockout,−1.077
same,neg|score,GARS knockout,0.0008542
same,neg|lfc,GEMIN4 knockout,−1.3849
same,neg|score,GINS1 knockout,0.0009186
same,neg|lfc,GSG2 knockout,−1.139
same,neg|lfc,GTF2F2 knockout,−0.9729
same,neg|lfc,GTF3C1 knockout,−1.0865
same,neg|score,GTPBP4 knockout,0.0008361
same,neg|lfc,HEATR2 knockout,−0.6955
same,neg|lfc,HGS knockout,−0.9397
same,neg|lfc,HNF1B knockout,−0.822
same,neg|lfc,HSPA8 knockout,−2.0457
same,neg|score,HSPA14 knockout,0.0009105
same,neg|lfc,IDI1 knockout,−0.7039
same,neg|score,ILF3 knockout,0.0008338
same,neg|lfc,IMP4 knockout,−1.8118
same,neg|score,IPO13 knockout,0.0008689
same,neg|score,IQGAP3 knockout,0.0008176
same,neg|score,JMJD6 knockout,0.0007183
same,neg|lfc,KANSL3 knockout,−1.734
same,neg|score,KBTBD2 knockout,0.0008277
same,neg|score,KDM2A knockout,0.0008953
same,neg|lfc,KIF18A knockout,−1.181
same,neg|score,KRAS knockout,0.0008327
same,neg|lfc,KRR1 knockout,−1.4982
same,neg|score,LSM3 knockout,0.0008487
same,neg|score,LSM5 knockout,0.0007041
same,neg|lfc,LSM12 knockout,−0.7213
same,neg|score,MBTPS1 knockout,0.0007681
same,neg|score,MCAT knockout,0.0009141
same,neg|score,MCM4 knockout,0.000877
same,neg|lfc,MED11 knockout,−1.4228
same,neg|score,MOGAT3 knockout,0.000754
same,neg|score,MRPL11 knockout,0.0007518
same,neg|lfc,MRPL38 knockout,−1.0939
same,neg|lfc,MRPL50 knockout,−1.0478
same,neg|score,MRPS2 knockout,0.0007231
same,neg|score,MRRF knockout,0.0008379
same,neg|score,MTERFD2 knockout,0.0008506
same,neg|score,MTHFD1 knockout,0.0007217
same,neg|score,MYBBP1A knockout,0.0009866
same,neg|lfc,MYBL2 knockout,−0.6253
same,neg|score,NAA10 knockout,0.0008935
same,neg|score,NASP knockout,0.0009277
same,neg|score,NCAPD2 knockout,0.0009387
same,neg|score,NDUFB9 knockout,0.0007395
same,neg|score,NDUFB10 knockout,0.0009074
same,neg|score,NDUFS1 knockout,0.0007194
same,neg|lfc,NDUFS5 knockout,−0.8577
same,neg|lfc,NEDD8 knockout,−2.4196
same,neg|lfc,NIP7 knockout,−0.8825
same,neg|lfc,NLE1 knockout,−1.8629
same,neg|lfc,NME6 knockout,−1.1709
same,neg|lfc,NOL6 knockout,−1.0733
same,neg|score,NOL8 knockout,0.000711
same,neg|lfc,NPLOC4 knockout,−1.2039
same,neg|score,NRF1 knockout,0.0008548
same,neg|lfc,NSMCE2 knockout,−1.577
same,neg|lfc,NUBP1 knockout,−1.2742
same,neg|lfc,OGT knockout,−1.3076
same,neg|score,OR3A2 knockout,0.0009552
same,neg|lfc,PDHA1 knockout,−0.7499
same,neg|lfc,PGGT1B knockout,−0.821
same,neg|lfc,PI4KA knockout,−1.1904
same,neg|score,PNN knockout,0.0007486
same,neg|score,POLD2 knockout,0.0007896
same,neg|score,POLR3A knockout,0.0008536
same,neg|score,PPIL4 knockout,0.000952
same,neg|lfc,PRKRIR knockout,−1.3008
same,neg|score,PRPF19 knockout,0.0007312
same,neg|score,PRPF38B knockout,0.0009555
same,neg|lfc,PSMA6 knockout,−1.9056
same,neg|score,PSMB4 knockout,0.000768
same,neg|lfc,QARS knockout,−1.1752
same,neg|score,RABGGTA knockout,0.0007119
same,neg|lfc,RABIF knockout,−1.3292
same,neg|lfc,RANBP1 knockout,−0.7938
same,neg|lfc,RBM10 knockout,−1.4299
same,neg|lfc,RBM48 knockout,−1.4768
same,neg|score,RBX1 knockout,0.0008383
same,neg|score,RFC2 knockout,0.0008264
same,neg|score,RNASEH1 knockout,0.000903
same,neg|lfc,RNF20 knockout,−0.9142
same,neg|score,RNF168 knockout,0.0008246
same,neg|score,RNPS1 knockout,0.0009345
same,neg|score,RPF2 knockout,0.0009481
same,neg|lfc,RPL7 knockout,−1.3947
same,neg|lfc,RPL18A knockout,−1.5316
same,neg|lfc,RPL35 knockout,−0.8092
same,neg|lfc,RPP30 knockout,−1.2535
same,neg|score,RPS2 knockout,0.0008275
same,neg|lfc,RPS8 knockout,−2.8705
same,neg|lfc,RRM1 knockout,−1.5038
same,neg|score,SASS6 knockout,0.0008932
same,neg|lfc,SKA2 knockout,−1.5851
same,neg|lfc,SLC39A14 knockout,−0.9135
same,neg|score,SMARCB1 knockout,0.0008764
same,neg|score,SOD1 knockout,0.0007147
same,neg|lfc,SRPRB knockout,−0.9129
same,neg|score,SUPT4H1 knockout,0.0007007
same,neg|lfc,SUZ12 knockout,−0.9357
same,neg|lfc,TARDBP knockout,−1.4541
same,neg|lfc,TBCA knockout,−1.4702
same,neg|lfc,TBP knockout,−1.6473
same,neg|lfc,TFB1M knockout,−0.9751
same,neg|score,TFDP1 knockout,0.0007958
same,neg|score,TIMM13 knockout,0.0007917
same,neg|score,TMEM130 knockout,0.0009518
same,neg|score,TNPO3 knockout,0.0009376
same,neg|score,TRIT1 knockout,0.0007446
same,neg|lfc,TSR1 knockout,−1.335
same,neg|score,TTC27 knockout,0.0008097
same,neg|score,TTI1 knockout,0.0008319
same,neg|score,TUBE1 knockout,0.0008874
same,neg|score,TUT1 knockout,0.0008619
same,neg|lfc,TXNL4A knockout,−1.8929
same,neg|score,TYMS knockout,0.0007567
same,neg|lfc,UBC knockout,−1.0724
same,neg|score,UBE2I knockout,0.0008281
same,neg|lfc,UBR4 knockout,−1.0947
same,neg|lfc,UBR5 knockout,−1.3884
same,neg|score,UBTF knockout,0.0007853
same,neg|lfc,UQCRC2 knockout,−1.0409
same,neg|lfc,UTP6 knockout,−2.6455
same,neg|score,UTP20 knockout,0.0007152
same,neg|score,VMA21 knockout,0.000773
same,neg|lfc,VPS18 knockout,−1.3116
same,neg|lfc,VPS53 knockout,−0.6999
same,neg|lfc,VPS72 knockout,−0.5497
same,neg|score,WDHD1 knockout,0.0009781
same,neg|score,WDR3 knockout,0.0009589
same,neg|score,WDR18 knockout,0.0007708
same,neg|lfc,WNK1 knockout,−1.0645
same,neg|score,WRAP53 knockout,0.0007984
same,neg|score,XPR1 knockout,0.000881
same,neg|lfc,XRCC5 knockout,−1.6679
same,neg|score,ZBTB11 knockout,0.0007214
same,neg|lfc,ZCCHC9 knockout,−1.957
same,neg|score,ZNF131 knockout,0.0008989
same,neg|lfc,ZNRD1 knockout,−1.5763
same,pos|lfc,gene ACTB,−1.1591
same,pos|lfc,gene ALG3,−0.5782
same,pos|lfc,gene ANAPC15,−1.2923
same,pos|lfc,gene AP2S1,−1.3206
same,pos|lfc,gene ARID4B,−0.9143
same,pos|lfc,gene BRCA1,−0.6966
same,pos|lfc,gene BUB1B,−0.8094
same,pos|lfc,gene C1D,−1.3624
same,pos|lfc,gene C16orf72,−2.2251
same,pos|lfc,gene CABIN1,−0.7818
same,pos|lfc,gene COPS6,−1.1267
same,pos|lfc,gene CS,−1.0352
same,pos|lfc,gene DARS2,−1.095
same,pos|lfc,gene DCLRE1B,−0.6801
same,pos|lfc,gene DDX49,−2.1703
same,pos|lfc,gene DYNC1H1,−1.3605
same,pos|lfc,gene DYNLRB1,−1.1311
same,pos|lfc,gene EIF2S1,−1.3093
same,pos|lfc,gene EIF2S2,−1.5347
same,pos|lfc,gene EIF5AL1,−0.8423
same,pos|lfc,gene EIF5B,−1.1819
same,pos|lfc,gene FANCA,−0.6873
same,pos|lfc,gene FANCG,−0.7949
same,pos|lfc,gene FNTB,−0.9877
same,pos|lfc,gene GCN1L1,−0.5542
same,pos|lfc,gene GRWD1,−0.9019
same,pos|lfc,gene GTPBP8,−1.0746
same,pos|lfc,gene HNRNPL,−1.1529
same,pos|lfc,gene HNRNPR,−0.5338
same,pos|lfc,gene KIAA1429,−1.1326
same,pos|lfc,gene LIMS1,−0.8407
same,pos|lfc,gene MMGT1,−0.748
same,pos|lfc,gene MRPL54,−0.8393
same,pos|lfc,gene NDUFB2,−0.8331
same,pos|lfc,gene NDUFC1,−0.9001
same,pos|lfc,gene NOP16,−1.0035
same,pos|lfc,gene PDCD7,−0.9939
same,pos|lfc,gene PDE12,−0.8248
same,pos|lfc,gene PEAR1,−0.6471
same,pos|lfc,gene POLD3,−1.3598
same,pos|lfc,gene POLR1C,−0.9691
same,pos|lfc,gene POLR2F,−1.9506
same,pos|lfc,gene PPHLN1,−0.829
same,pos|lfc,gene PPOX,−0.7508
same,pos|lfc,gene PWP2,−1.0599
same,pos|lfc,gene RIMBP2,−0.4894
same,pos|lfc,gene RMND1,−0.9991
same,pos|lfc,gene RPL3,−1.3237
same,pos|lfc,gene RPS19,−2.0213
same,pos|lfc,gene SEZ6,−0.6228
same,pos|lfc,gene SLC2A1,−0.9368
same,pos|lfc,gene SMC3,−1.7209
same,pos|lfc,gene SMC6,−1.1456
same,pos|lfc,gene SMG5,−1.2307
same,pos|lfc,gene SNRNP40,−1.1024
same,pos|lfc,gene TEX10,−1.3169
same,pos|lfc,gene TIFAB,−0.6891
same,pos|lfc,gene TOMM22,−0.8272
same,pos|lfc,gene TRAPPC4,−1.0187
same,pos|lfc,gene TTI2,−0.8554
same,pos|lfc,gene USP10,−0.902
same,pos|lfc,gene WDR12,−1.1622
same,pos|lfc,gene WDR92,−1.2556
same,pos|lfc,gene ZNHIT6,−1.4893
